Measurements from PMC4306142, “Structure of mycobacterial maltokinase, the missing link in the essential GlgE-pathway” (Scientific Reports, 2015).

Assays:
[1] = test system: Nc1nc2c(ncn2[C@@H]2O[C@H](COP(=O)(O)OP(=O)(O)OP(=O)(O)O)[C@@H](O)[C@H]2O)c(=O)[nH]1; experiment: purified protein; type: biochemical, Mycolicibacterium austroafricanum; conditions: pH 7.5; 30.0 °C
[2] = target: T1, Mak^Mvan (Mycolicibacterium austroafricanum, UniProt A1TH50)
[3] = target: T1, Mak^Mvan; experiment: X-ray crystal structure, […] Å; type: binding; parameters: full length (model Thr2-Gly441), C-terminal linker and His-tag kept, 454 residues in all; pET30a, NdeI/HindIII, E. coli; monomer; conditions: co-crystallised with 4 mM AppCp, two Mg2+; nucleotide site, two conformations

T1 sequence (A1TH50 whole entry): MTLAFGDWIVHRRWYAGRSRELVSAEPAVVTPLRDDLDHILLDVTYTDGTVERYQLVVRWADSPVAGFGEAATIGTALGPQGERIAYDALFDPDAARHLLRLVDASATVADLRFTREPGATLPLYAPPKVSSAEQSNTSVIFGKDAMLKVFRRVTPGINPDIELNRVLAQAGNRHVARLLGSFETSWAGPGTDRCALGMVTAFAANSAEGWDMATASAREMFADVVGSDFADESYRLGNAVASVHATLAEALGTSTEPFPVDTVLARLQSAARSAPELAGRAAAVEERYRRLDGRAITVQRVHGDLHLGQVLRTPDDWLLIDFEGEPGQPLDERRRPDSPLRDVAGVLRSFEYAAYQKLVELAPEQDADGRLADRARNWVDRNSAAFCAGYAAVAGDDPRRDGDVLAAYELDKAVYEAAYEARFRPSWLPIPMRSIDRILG

Compound: (Mycolicibacterium vanbaalenii PYR-1)
- Km [1]: 5.8 ± 1.4 mM

Compound: Nc1ncnc2c1ncn2[C@@H]1O[C@H](COP(=O)(O)OP(=O)(O)OP(=O)(O)O)[C@@H](O)[C@H]1O [ATP]
- X-ray crystal structure, 1.71 Å [2]: 4WZY (Mak^Mvan:ATP complex)

Compound: Nc1ncnc2c1ncn2[C@@H]1O[C@H](COP(=O)(O)OP(=O)(O)CP(=O)(O)O)[C@@H](O)[C@H]1O [AppCp, adenosine-5′-[(β,γ)-methyleno] triphosphate]
- X-ray crystal structure, 1.15 Å [3]: structure of Mak^Mvan in complex with the non-hydrolysable ATP analog
